In patent US5300279A, “Organic amine phosphonic acid complexes for the treatment of calcific tumors” (The Dow Chemical Company, priority 1990, dated 1994):
Like-named read-outs stand apart in the source and are kept apart here.

Columns and labels:
[1] = Procedure: (§1) Sterile pyrogen-free vials were prepared to contain 210 mg of EDTMP and 140 mg NAOH by freeze-drying a solution containing appropriate amounts of EDTMP and NAOH. The vials were sealed under vacuum. To prepare one of the compositons of the invention, 6 ml of a solution containing Sm-153 (approximately 3×10^-4 M in Sm) in 0.1M HCl was injected into the sealed vial through a septum.
Urine was collected and counted to determine the percentage of the radioactivity excreted as a function of time after injection.

[2] = for Percent Injected Dose Remaining in Whole Blood, Average: average of 5 patients
Procedure: as §1
Five humans with metastatic bone cancer (three with lung cancer and two with prostate cancer as the primary site) were injected with a composition containing 2 mCi of Sm-153-EDTMP. Blood samples were taken intermittently to determine the fraction of the Sm-153 remaining in the blood.

[3] = rabbits, three hour, averaged for 5 rabbits
Procedure: Biolocalization studies were also performed in rabbits. The rabbits were injected with 100-250 microliters of the composition into the marginal ear vein. In studies where blood clearance was measured, blood samples were taken through a heparinized cannula placed in the marginal vein of the ear not used for injection. Three hours after injection, a blood sample was taken from each rabbit by cardiac puncture and each animal was sacrificed by injection of a commercial euthanasia solution. After sacrifice, images were obtained by placing the carcass directly on the face of a large field-of-view scintillation camera.
Whenever in the following examples and tables data is presented on the administered dose of radioactivity, the numbers given represent the percentage of the administered dose which localized in the indicated tissue. The ratios of radioactivity observed in bone relative to blood and muscle were calculated based on the percent dose per gram in the bone and in the blood and muscle. Whenever the ratios of radioactivity found in bone to that found in nonosseous tissue is given, the calculation was made as indicated above on a percent dose per gram basis.
Compositions containing Sm-153-EDTMP (compositions prepared as in Example 2) were also tested in rabbits.

cancerous lesions = experiment: scintigraphic imaging in humans with metastatic bone cancer; assay type: in vivo
Procedure: Scintigraphic images were obtained two hours post injection and were used for comparison with images previously obtained using Tc-99m-HDP (hydroxymethylenediphosphonate), a commercially available diagnostic bone imaging agent.
The uptake observed for each radionuclide in selected lesions compared to its uptake in normal bone was determined using digitized images.

[4] = humans
[5] = tested on: white blood cells and platelets; conditions: for platelet and white blood cell levels: 2-3 weeks after administration
Procedure: A series of normal beagles was treated with various dose levels of a composition containing Sm-153-EDTMP. White blood cell and platelet counts were measured weekly to check for signs of bone marrow supression.

lesion / normal bone = conditions: compared with Tc-99m-MDP
Procedure: Thus, two holes were drilled into the surface of the tibia of a rabbit in order to damage the bone. Seven to ten days later, the animal was injected with the radionuclide composition. After three hours, the rabbit was anesthetized and imaged using an Anger camera and pinhole collimator.

[6] = biolocalization of the radionuclide in rats (tissue distribution after tail vein injection); assay type: in vivo, male Sprague Dawley rats; conditions: Sm-153, rats
Procedure: Studies to determine the qualitative biodistribution of the various radionuclides were conducted by injecting the compositions into rats and obtaining the gamma ray images of the entire animal at various times up to two hours after injection.
Laboratory rats were injected with the above complex (50-100 μl) via the tail vein. After 2 hours, the animals were sacrificed by cervical dislocation and organs and tissues removed. Samples were counted with a NaI counter to determine the biolocalization of the radionuclide.

[7] = 2 hours, ratio of percent dose per gram, average of 5 rats

For O=P([O-])(O)CN(CCN(CP(=O)([O-])O)CP(=O)(O)O)CP(=O)([O-])O.[153Sm+3] [Example 2], the “Percent Excretion in Urine, Average” value ([1]; 1 Hr., average of 5 patients) was 26.13%, the “Percent Excretion in Urine, Average” value ([1]; 2 Hr., average of 5 patients) was 7.15% and the “Percent Excretion in Urine, Average” value ([1]; 4-8 Hr., average of 5 patients) was 9.02%. For the same molecule, the “Percent Excretion in Urine, Average” value ([1]; 4 Hr., average of 5 patients) was 10.95%, the “Percent Excretion in Urine, Average” value ([1]; 8-12 Hr., average of 5 patients) was 1.76% and the “Percent Excretion in Urine, Average” value ([1]; 12-24 Hr., average of 5 patients) was 1.07%. For the same molecule, the “Percent Excretion in Urine, 24 Hr Total, Average” value ([1]; 24 Hr Total, average of 5 patients) was 56.09%, the “clearance of radioactivity into the urine” value ([1]; humans, words) was “cleared rapidly” and the “Percent Injected Dose Remaining in Whole Blood, Average” value (from here on “Percent Injected Dose Remaining”) ([2]; 5 min.) was 31.63 Percent Injected Dose. For the same molecule, the “Percent Injected Dose Remaining” value ([2]; 15 min.) was 20.90 Percent Injected Dose, the “Percent Injected Dose Remaining” value ([2]; 30 min.) was 15.77 Percent Injected Dose and the “Percent Injected Dose Remaining” value ([2]; 60 min.) was 9.53 Percent Injected Dose. For the same molecule, the “Percent Injected Dose Remaining” value ([2]; 120 min.) was 5.17 Percent Injected Dose, the “Percent Injected Dose Remaining” value ([2]; 180 min.) was 3.28 Percent Injected Dose and the “Percent Injected Dose Remaining” value ([2]; 240 min.) was 2.08 Percent Injected Dose. For the same molecule, the “concentration of radioactivity in red cells” value ([2]; humans) was “no significant concentration of radioactivity in red cells”, the “radioactivity in the plasma fraction” value ([2]; humans) was “all of the measured activity was in the plasma fraction” and the “clearance of radioactivity from the blood” value ([2]; humans, words) was “the radioactivity cleared very rapidly from the blood”. The “% Dose in Blood” value [3] was 0.12 % Dose, the “% Dose in Bone Marrow” value [3] was 0.15 % Dose and the “% Dose in Liver” value [3] was 0.95 % Dose. The “% Dose in Skeleton” value [3] was 66 % Dose, the “% Dose in Urine” value ([3]; 180 min) was 34 % Dose and the Bone/Blood ([3]; ratio of percent dose per gram) was 900. The Bone/Muscle ([3]; ratio of percent dose per gram) was 1200, the “Sm-153 concentration in cancerous lesions” value (cancerous lesions; compared with dogs) was “high, selective and similar to that observed in dogs” and the “localization of radioactivity in lesions vs normal bone compared with Tc-99m-HDP” value (cancerous lesions; digitized images) was “localization of radioactivity in the lesions to a similar extent”. For the same molecule, the “visibility of cancerous lesions compared with Tc-99m-HDP” value (cancerous lesions; qualitative comparison of images) was “all cancerous lesions observable with Tc-99m-HDP are seen equally well with Sm-153-EDTMP”, the “retention of radioactivity in the kidneys” value (cancerous lesions; two hour post injection images) was “no observable retention of radioactivity in the kidneys” and the “localization of Sm-153 in scintigraphic images” value (cancerous lesions; two hours post injection) was “localized in skeletal tissue with no significant uptake and retention in non-osseous tissues”. For the same molecule, the “blood profiles (white blood cell, red blood cell, platelet count) and serum chemistry profiles” value ([4]; post-injection vs preinjection) was “No significant changes”, the vital signs ([4]; several post injection times vs preinjection) was “not significantly different than preinjection values” and the “platelet and white blood cell levels” value ([5]; 0.5 mCi Sm-153/kg) was “smaller decrease in the levels of platelets and white blood cells”. The “time to return of white cells and platelets to normal levels” value ([5]; 0.5 mCi Sm-153/kg, few animals that fell below normal) was 4-5 weeks, the “time to return of white cells and platelets to normal levels” value ([5]; 1.0 mCi Sm-153/kg) was 4-5 weeks and the “platelet and white blood cell levels” value ([5]; 1.0 mCi Sm-153/kg) was “slight decrease in both platelets and white blood cells”. For the same molecule, the “lesion to normal bone ratio” value (lesion / normal bone) was “approximately equal to that of Tc-99m-MDP”, the scintillation scans [6] was “the radioactivity concentrating in the skeletal system” and the “clearance of radioactivity through the kidneys into the urine” value ([6]; 2 hours) was “Most of the radioactivity not found in the skeleton was cleared through the kidneys into the urine”. For the same molecule, the “radioactivity concentrated in the skeletal system” value ([6]; 2 hours) was 55-65%, the soft tissue uptake ([6]; 2 hours) was “very little soft tissue uptake” and the “% Dose in Blood” value ([6]; 2 hours, average of 5 rats) was 0.032 % Dose. For the same molecule, the “% Dose in Liver” value ([6]; 2 hours, average of 5 rats) was 0.25 % Dose, the “% Dose in Skeleton” value ([6]; 2 hours, average of 5 rats) was 58 % Dose and the “% Dose in Urine” value ([6]; 2 hours, average of 5 rats) was 49 % Dose. It also gave a Bone/Blood [6, 7] of 1800 and a Bone/Muscle [6, 7] of 1500.
